Read-outs that look alike come from different tables or passages of the source.
Tests used:
[1] = tested on: stage IIIB/IV non-small cell lung cancer patients; conditions: cited from earlier work
[2] = tested on: refractory stage IIIB/IV non-small cell lung cancer patients; conditions: cited from earlier work
[3] = Pharmacokinetics of ATP on weeks (cycles) 1, 3 and 8 of the Phase I study; assay type: in vivo, human
Source text: Two of the seven evaluable patients had advanced prostate cancer with bone metastases and one each had advanced mesothelioma, metastatic breast cancer, metastatic melanoma, metastatic colon cancer and renal cell carcinoma.

[4] = tested on: patients with advanced malignancies (solid tumors); experiment: Phase I study of ATP by 8 hour intravenous infusion once weekly, out-patient (DMS #D0005): safety, tolerability, clinical efficacy; assay type: in vivo, human
Procedure: Adenosine 5′-triphosphate (ATP) is provided as a sterile solution in single use vials. […] Storage of the clinical solutions is at controlled refrigerated temperature (2-8° C.). […] The concentration of the final sterile solution is 8 mg/ml and is administered by continuous intravenous infusions using an Ivac or similar infusion device through venous access in a peripheral vein. If venous access is a problem, either a Hickman catheter or its equivalent or an Infusaport or its equivalent, are inserted to provide vascular access. […] All follow-up care is administered in hospital outpatient department or at the patient's home or clinic.
Title of the Study: “A Phase I Study of the Safety and Pharmacokinetics of Adenosine 5′-Triphosphate (ATP) When Administered by Intravenous Infusion on a Multiple Weekly Dose Schedule to Patients with Advanced Malignancies (Solid Tumors)”.
Nine qualified patients have been enrolled in the study as of Jan. 1, 2002; seven of which received the first 3 cycles of the study drug and are therefore evaluable for the primary endpoints. Two of the seven evaluable patients had advanced prostate cancer with bone metastases and one each had advanced mesothelioma, metastatic breast cancer, metastatic melanoma, metastatic colon cancer and renal cell carcinoma.

[5] = tested on: men with advanced, non-resectable cancer; conditions: cited from earlier work
[6] = cited from earlier work; for whole blood ATP concentration higher than pretreatment value (average): 24 hours of infusion
[7] = 50 or 65 mcg/kg/min, 96 hours once every 4 weeks, 15 patients
[8] = 50 or 65 mcg/kg/min, 96 hours once every 4 weeks
[9] = 30-hours infusions, 20 up to 75 mcg/kg/min
[10] = week 1 pre-dose to week 13 follow-up
[11] = 50, 75 or 100 mcg/kg/min, 96 hr infusion once every 4 weeks

Q: With `Nc1ncnc2c1ncn2[C@@H]1O[C@H](COP(=O)(O)OP(=O)(O)OP(=O)(O)O)[C@@H](O)[C@H]1O` [ATP, Adenosine 5′-triphosphate] as the molecule, how does the “patients reporting severe (grade 3) adverse effects” value [1, 7] read?
A: Six

Q: And the “patients with life-threatening (grade 4) dyspnea” value [1, 7]?
A: two

Q: And the “disease status after treatment” value [1, 8]?
A: the majority of patients exhibited stable disease

Q: What about the “hematologic, renal, hepatic, or gastrointestinal toxicity” value [1, 8] of the same molecule?
A: No significant

Q: What about the tumor shrinking [1, 8] of the same molecule?
A: no significant tumor shrinking was observed

Q: What about the “effects on weight gain, performance status and overall survival” value ([1]; non-small cell lung cancer patients) of the same molecule?
A: beneficial effects

Q: What about the “adverse events of grade 1 (mild)” value [2, 9] of the same molecule?
A: 81

Q: And the “adverse events of grade 2 (moderate)” value [2, 9]?
A: 5

Q: What about the “adverse events of grade 3 (severe)” value [2, 9] of the same molecule?
A: none

Q: What about the “adverse events of grade 4 (life threatening)” value [2, 9] of the same molecule?
A: 5

Q: What about the “electrocardiograms in patients with chest discomfort” value ([2]; 30-hours infusions) of the same molecule?
A: did not exhibit changes suggestive of myocardial ischemia

Q: And the “effects on body weight, voluntary muscle strength and Quality of Life domains” value ([2]; ATP plus best supportive care vs best supportive care only)?
A: beneficial effects

Q: And the “resolution of side effects” value ([2]; after lowering the rate of ATP infusion)?
A: resolved within minutes

Q: What about the “total blood ATP pools after infusion” value ([3]; at 24 hours) of the same molecule?
A: decline to baseline (time 0)

Q: What about the “average increases in Initial ATP Release Rates (from Red Blood Cells)” value ([3]; time 0 to 8 hours) of the same molecule?
A: 200-400%

Q: And the “increases in total blood ATP pools (red blood cell pools)” value ([3]; time 0 to 8 hours (end of the infusions))?
A: 70-90%

Q: What about the “grade 2 cardiac ischemia or grades 3 or 4 toxicity” value ([4]; 8 hour iv infusion once weekly, up to 100 mcg/kg/min) of the same molecule?
A: No grade 2 cardiac ischemia or grades 3 or 4 toxicity have been observed

Q: And the appetite loss ([4]; all patients, screening to week 10 (follow-up), return to screening baseline at week 13)?
A: Decreases

Q: What about the “SGOT, SGPT and serum LDH” value ([4]; all patients, week 1 (pre-dose) to week 13 (follow-up)) of the same molecule?
A: Consistent decreases

Q: What about the “maximum allowable dose tolerated” value ([4]; continuous 8 hours iv infusion once weekly for eight weeks, seven of nine patients (the seven evaluable)) of the same molecule?
A: 100 µg/kg/min

Q: And the “appetite and energy (subjective patient comments)” value ([4]; during the study, several patients)?
A: improved appetite and energy

Q: And the “tolerability in terminal patients” value ([4]; patient 506)?
A: well tolerated

Q: What about the “Global Health Status of the QOL EORTC QLQ-C30” value ([4]; screening (week <1) to follow-up (week 10), decline at week 13 follow-up) of the same molecule?
A: Increases

Q: And the “Skeletal Muscle Strength (voluntary)” value ([4]; screening (week <1) to week 8 (last infusion cycle))?
A: Small increases

Q: What about the “Kamofsky Performance Status” value [4, 10] of the same molecule?
A: Small increases

Q: What about the body weight [4, 10] of the same molecule?
A: Stabilization

Q: What about the “share of all adverse events that were grade 1 or 2 (mild or moderate)” value [5, 11] of the same molecule?
A: 79%

Q: What about the “share of all adverse events that were grade 3 or 4 (severe or life-threatening)” value [5, 11] of the same molecule?
A: 21%

Q: And the maximum tolerated dose ([5]; 96-hours infusions, patients with advanced cancers)?
A: 50 µg/kg/min

Q: What about the “events of grade 3 anxiety” value ([5]; 96 hr infusions) of the same molecule?
A: one

Q: What about the “events of grade 3 headache” value ([5]; 96 hr infusions) of the same molecule?
A: 1 event

Q: And the “grade 3 or 4 events of chest pain” value ([5]; 96 hr infusions)?
A: 5 events

Q: What about the “grade 3 or 4 events of dizziness” value ([5]; 96 hr infusions) of the same molecule?
A: 1 event

Q: What about the “grade 3 or 4 events of dyspnea” value ([5]; 96 hr infusions) of the same molecule?
A: 6 events

Q: What about the “grade 3 or 4 events of hypotension” value ([5]; 96 hr infusions) of the same molecule?
A: 1 event

Q: And the “grade 3 or 4 events of hypoxia” value ([5]; 96 hr infusions)?
A: 2 events

Q: What about the “grade 3 or 4 events of nausia/emesis” value ([5]; 96 hr infusions) of the same molecule?
A: 2 events

Q: And the “whole blood ATP concentration higher than pretreatment value (average)” value ([6]; 50 mcg/kg/min)?
A: 63%

Q: What about the “whole blood ATP concentration higher than pretreatment value (average)” value ([6]; 75 mcg/kg/min) of the same molecule?
A: 67%

Q: And the “whole blood ATP concentration higher than pretreatment value (average)” value ([6]; 100 mcg/kg/min)?
A: 113%

Q: What about the “course of blood ATP concentrations” value ([6]; interval between 24 and 96 hours of the infusion) of the same molecule?
A: relatively constant or slightly declined

From US7879814B2, “Methods and therapeutic compositions in the treatment of advanced cancer” (priority 2003, dated 2011)
